14 molecules from PMC8584424, “Synthesis of Novel 2-Thiouracil-5-Sulfonamide Derivatives as Potent Inducers of Cell Cycle Arrest and CDK2A Inhibition Supported by Molecular Docking” (International Journal of Molecular Sciences, 2021) can be followed below.

The IC50 is the concentration needed to halve the response being measured. As usually defined, the melting point is the temperature of the solid-liquid transition.

Data set [1] concerns A-2780 (ovarian) cancer cells. Description: In vitro cytotoxicity assessment (MTT), A-2780. In kind it is cell-based, human. Conditions: for IC50: Homo sapiens, A2780, 48 h, MTT, mean of three experiments ± SD, NA: not active; for SI (selectivity index) A-2780: IC50 in WI38 normal cells / IC50 in A-2780. From the text: (§1) Four cancer cell lines were used in this study viz ovarian (A-2780), colon (HT-29), breast (MCF-7), and liver (HepG2) cancer cells. They were provided by the National Institute of Cancer, Cairo University (Cairo, Egypt). The selection of those cancer cells was encouraged by the stated anticancer activity of a number 5-Fluorouracil hybrids against the mentioned cancer cells and based on the reported cytotoxic activity of a large range of bioactive cores containing sulfonamide moiety.
(§2) Cells were seeded in 96 well plates at a density of 2 × 10^4 and incubated to allow the attachment for 24 h. Then the cells were treated at different concentrations (2.5–10 μM) with 5-FU as a positive control or the synthesized compounds for 48h. 0.1% DMSO was used as a negative control. Afterward, cells were washed using PBS and the viability of cells was evaluated utilizing in vitro toxicology assay kit, MTT Based (Stock No. TOX-1, Sigma-Aldrich, Saint Louis, Missouri, USA), per the manufacturer’s instructions. The plates were read at 570 nm. IC50 was calculated using a sigmoidal dose-response curve (GraphPad Prism version 5 for Windows (GraphPad Inc., USA)). Data are presented as the mean of the three individual experiments. The degree of selectivity of the active target compounds relative to WI38 normal cell lines is expressed as previously described. Selectivity index (SI) = IC50 of a pure compound in a normal cell line/IC50 of the same pure compound in a cancerous cell line.

Data set [2] concerns HT-29 (colon) cancer cells. Description: In vitro cytotoxicity assessment (MTT), HT-29. The class given is cell-based, human. Conditions: for IC50: Homo sapiens, HT-29, 48 h, MTT, mean of three experiments ± SD, NA: not active; for SI (selectivity index) HT-29: IC50 in WI38 normal cells / IC50 in HT-29.
From the text: as §1, §2

In data set [3] the test system is MCF-7 (breast) cancer cells. The experiment in a line: In vitro cytotoxicity assessment (MTT), MCF-7. The class given is cell-based, human. Conditions: for IC50: Homo sapiens, MCF7, 48 h, MTT, mean of three experiments ± SD, NA: not active; for SI (selectivity index) MCF-7: IC50 in WI38 normal cells / IC50 in MCF-7.
From the text: as §1, §2

The subject of data set [4] is HepG2 (liver) cancer cells. The experiment in a line: In vitro cytotoxicity assessment (MTT), HepG2. The class given is cell-based, human. Conditions: for IC50: Homo sapiens, HepG2, 48 h, MTT, mean of three experiments ± SD, NA: not active; for SI (selectivity index) HepG2: IC50 in WI38 normal cells / IC50 in HepG2.
From the text: as §1, §2

For a further data set, the system named is WI38 normal cells. The experiment in a line: In vitro cytotoxicity assessment (MTT), normal cells. In kind it is cell-based. Conditions: WI-38; normal human cell line WI38, MTT. The procedure:
as §2, with “Then the cells were treated at different concentrations (2.5–10 μM) with 5-FU as a positive control or the synthesized compounds for 48h.” left out

The target in another data set is T1, CDK2/CyclinA2 (Homo sapiens, UniProt P24941).
T1 construct: purchased #79599
The experiment in a line: In vitro inhibitory screening of CDK2 (CDK2 Assay kit, Kinase-Glo MAX). The settings on record: CDK2/CyclinA2, 30 °C 45 min; mean of three experiments ± SD; read-out: CDK2 Protein Kinase (IC50 in µM). The class given is biochemical. (In general: Kinase-Glo measures the ATP left after a reaction by luminescence.)

Method for CDK2/CyclinA2: To measure CDK2/CyclinA2 activity, the CDK2 Assay kit #79599 was used for screening and profiling applications, together with Kinase-Glo® MAX (Promega#V6071) as a detection reagent. […] Briefly, 25 μL of the master mixture containing 6 μL Kinase assay buffer + 1 μL ATP + 5 μL CDK substrate peptide + 13 μL distilled water were added to each well. Later, 5 µL of inhibitor buffer only or diluted compound were added to the blank or test inhibitor wells, respectively. Then, 20μL of Kinase assay buffer was added to blank wells. The reaction was started by the addition of 20 μL of CDK2/CyclinA2 enzyme to the wells of the test inhibitor. The final volume was 50 µL in all of the reactions. Incubation was at 30 °C for 45 min for all the enzymatic reactions. Finally, to each well, 50 μL of Kinase-Glo MAX reagent was added. The plate was incubated for 15 min at room temperature then, the luminescence signal was measured using a Bio Tek Synergy 2 microplate reader. Experiments were performed in triplicates.

In turn, `Cc1[nH]c(=S)[nH]c(=O)c1S(=O)(=O)Nc1ccccc1` [Compound 6a, 6-Methyl-4-Oxo-N-Phenyl-2-Thioxo-1,2,3,4-Tetrahydropyrimidine-5-Sulfonamide] came in with a melting point of 316 to 318 °C. This molecule also returned an IC50 in data set [1] of 17.7 ± 2.18 µM. This molecule registered an IC50 in data set [2] of 11.3 ± 2.08 µM. Half-maximal inhibition in data set [3] (IC50) required 16.8 ± 2.11 µM. The molecule further yielded an IC50 in data set [4] of 15.6 ± 1.52 µM.

The molecule `Cc1[nH]c(=S)[nH]c(=O)c1S(=O)(=O)NNC(N)=S` [Compound 8a, [(6-Methyl-4-Oxo-2-Thioxo-1,2,3,4-Tetrahydropyrimidin-5-Yl) Sulfonylamino] Thiourea] returned a melting point of 343 to 345 °C. The IC50 in data set [1] was determined as 16.8 ± 1.82 µM. The molecule further registered an IC50 in data set [2] of 8.02 ± 1.99 µM. Also, in data set [3], 13.3 ± 3 µM corresponded to half-maximal inhibition (IC50). It took 18 ± 1.95 µM to reach half-maximal inhibition in data set [4] (IC50).

On to `Cc1[nH]c(=S)[nH]c(=O)c1S(=O)(=O)Nc1cccc(C(=O)C=Cc2ccc([N+](=O)[O-])cc2)c1` [Compound 7b, 6-Methyl-N-(3-(3-(4-Nitrophenyl)acryloyl)phenyl)-4-Oxo-2-Thioxo-1,2,3,4-Tetrahydropyrimidine-5-Sulfonamide], for which the melting point was 318 to 320 °C. For the same molecule, in data set [1], the half-inhibitory concentration (IC50) was determined as 11.1 ± 1.41 µM and the “SI (selectivity index) A-2780” value stood at 7.22. Moreover, in data set [2], the 50% inhibitory concentration (IC50) came to 2.84 ± 0.78 µM and the “SI (selectivity index) HT-29” value worked out at 28.14. Besides, in data set [3], the half-maximal inhibitory concentration (IC50) stood at 6.11 ± 0.5 µM and the “SI (selectivity index) MCF-7” value worked out at 13.08. In data set [4], the IC50 worked out at 12.4 ± 1.82 µM and the “SI (selectivity index) HepG2” value is 6.43. The half-inhibitory concentration (IC50) with WI38 normal cells stood at 79.9 ± 2.56 µM. Also, the IC50 on CDK2/CyclinA2 stood at 0.81 ± 0.026 µM.

`COc1ccc(NS(=O)(=O)c2c(C)[nH]c(=S)[nH]c2=O)cc1` [Compound 6b, N-(4-Methoxyphenyl)-6-Methyl-4-Oxo-2-Thioxo-1,2,3,4-Tetrahydropyrimidine-5-Sulfon-Amide] showed a melting point of 320 to 322 °C. In data set [1], the IC50 was determined as 2.56 ± 0.45 µM and the “SI (selectivity index) A-2780” value is listed as 28.00. Besides, in data set [2], the half-maximal inhibitory concentration (IC50) stood at 5.1 ± 1.32 µM and the “SI (selectivity index) HT-29” value is reported as 14.05. In addition, in data set [3], the IC50 was 2.29 ± 0.63 µM and the “SI (selectivity index) MCF-7” value is 31.29. Moreover, in data set [4], the half-inhibitory concentration (IC50) was 2.23 ± 0.55 µM and the “SI (selectivity index) HepG2” value was found to be 32.13. In the data set on WI38 normal cells, the IC50 worked out at 71.7 ± 2 µM. In addition, the IC50 on CDK2/CyclinA2 amounted to 0.447 ± 0.031 µM.

Turning to `O=c1[nH]cc(F)c(=O)[nH]1` [Compound 5-FU, 5-fluorouracil, reference compound], the 50% inhibitory concentration (IC50) in data set [1] was determined as 3.92 ± 1 µM; in data set [2], 4.69 ± 1.13 µM; in data set [3] it was 5.15 ± 1.14 µM; in data set [4], 38.4 ± 2.4 µM.

Consider `Cc1[nH]c(=S)[nH]c(=O)c1S(=O)(=O)Nc1ccc(Br)cc1` [Compound 6g, N-(4-Bromophenyl)-6-Methyl-4-Oxo-2-Thioxo-1,2,3,4-Tetrahydropyrimidine-5-Sulfonamide], for which the melting point lay within 333 to 335 °C. Also, in data set [1], the concentration for half-maximal inhibition (IC50) was found to be 1.62 ± 0.35 µM and the “SI (selectivity index) A-2780” value came to 43.58. In data set [2], 5.05 ± 0.83 µM corresponded to half-maximal inhibition (IC50) and the “SI (selectivity index) HT-29” value came to 13.98. In data set [3], half-maximal inhibition (IC50) was put at 7.31 ± 1.21 µM and the “SI (selectivity index) MCF-7” value is listed as 9.65. Further, in data set [4], the concentration for half-maximal inhibition (IC50) worked out at 2.47 ± 0.51 µM. For the same molecule, the IC50 with WI38 normal cells is 70.6 ± 2.14 µM. Also, the IC50 on CDK2/CyclinA2 came out at 0.485 ± 0.033 µM.

Molecule `Cc1ccc(NS(=O)(=O)c2c(C)[nH]c(=S)[nH]c2=O)cc1` [Compound 6c, 6-Methyl-4-Oxo-2-Thioxo-N-(P-Tolyl)-1,2,3,4-Tetrahydropyrimidine-5-Sulfonamide] gave a melting point of 313 to 315 °C. In addition, in data set [1], the 50% inhibitory concentration (IC50) was determined as 14 ± 1.05 µM and the “SI (selectivity index) A-2780” value was 6.02. In data set [2], the IC50 came to 5.46 ± 1.66 µM and the “SI (selectivity index) HT-29” value came out at 15.46. Further, in data set [3], the IC50 was 6.36 ± 1.2 µM and the “SI (selectivity index) MCF-7” value is 13.27. Moreover, in data set [4], it took 6.71 ± 0.99 µM to reach half-maximal inhibition (IC50) and the “SI (selectivity index) HepG2” value came out at 12.58. This molecule gave a 50% inhibitory concentration (IC50) with WI38 normal cells of 84.4 ± 1.7 µM.

In the case of `Cc1[nH]c(=S)[nH]c(=O)c1S(=O)(=O)Nc1ccc([N+](=O)[O-])cc1` [Compound 6f, 6-Methyl-N-(4-Nitrophenyl)-4-Oxo-2-Thioxo-1,2,3,4-Tetrahydropyrimidine-5-Sulfonamide], the IC50 came out at 10.2 ± 0.97 µM in data set [1]; 6.4 ± 1.24 µM in data set [2]; 2.34 ± 0.61 µM in data set [3]; 6.1 ± 0.48 µM in data set [4]; 65.7 ± 2.28 µM in the data set on WI38 normal cells; 0.605 ± 0.023 µM at CDK2/CyclinA2.

For `Cc1[nH]c(=S)[nH]c(=O)c1S(=O)(=O)Nc1cccc(C(=O)C=Cc2ccc(Br)cc2)c1` [Compound 7c, N-(3-(3-(4-Bromophenyl)acryloyl)phenyl)-6-Methyl-4-Oxo-2-Thioxo-1,2,3,4-Tetrahydro Pyrimidine-5-Sulfonamide], the melting point is 335 to 337 °C. Moreover, in data set [1], the IC50 is 6.1 ± 0.54 µM and the “SI (selectivity index) A-2780” value stood at 10.28. In data set [2], the concentration for half-maximal inhibition (IC50) is 8.14 ± 1.95 µM and the “SI (selectivity index) HT-29” value was found to be 7.71. In addition, in data set [3], it took 11.7 ± 2.07 µM to reach half-maximal inhibition (IC50) and the “SI (selectivity index) MCF-7” value was determined as 5.38. For the same molecule, in data set [4], the IC50 came out at 8.25 ± 0.68 µM and the “SI (selectivity index) HepG2” value is recorded as 7.60. This molecule displayed an IC50 in the data set with WI38 normal cells of 62.7 ± 1.93 µM. In addition, at CDK2/CyclinA2, the IC50 was found to be 8.2 ± 0.486 µM.

For the molecule `Cc1[nH]c(=S)[nH]c(=O)c1S(=O)(=O)NNC(=O)c1ccccc1Cl` [Compound 9b, N′-(2-Chlorobenzoyl)-6-Methyl-4-Oxo-2-Thioxo-1,2,3,4-Tetrahydropyrimidine-5-Sulfono-Hydrazide], the melting point was in the range of 334 to 336 °C. Moreover, the midpoint of inhibition in data set [1], the IC50, lay at 7.95 ± 1.75 µM. This molecule also came in with a 50% inhibitory concentration (IC50) in data set [2] of 10.6 ± 1.25 µM. In data set [3], this molecule registered a half-maximal inhibitory concentration (IC50) of 13.6 ± 2.65 µM. The same molecule showed an IC50 in data set [4] of 13.3 ± 1.5 µM.

`Cc1[nH]c(=S)[nH]c(=O)c1S(=O)(=O)NNC(=O)c1ccc(Cl)cc1` [Compound 9a, N′-(4-Chlorobenzoyl)-6-Methyl-4-Oxo-2-Thioxo-1,2,3,4-Tetrahydropyrimidine-5-Sulfono-Hydrazide] registered a melting point of 327 to 329 °C. Moreover, the midpoint of inhibition in data set [1], the IC50, lay at 11.9 ± 3.47 µM. This molecule also yielded an IC50 in data set [2] of 6.64 ± 1.19 µM. The IC50 in data set [3] worked out at 10.8 ± 1.53 µM. This molecule showed a half-inhibitory concentration (IC50) in data set [4] of 11 ± 1.23 µM.

The molecule `Cc1[nH]c(=S)[nH]c(=O)c1S(=O)(=O)NNC(=O)c1ccc(Br)cc1` [Compound 9c, N′-(4-Bromobenzoyl)-6-Methyl-4-Oxo-2-Thioxo-1,2,3,4-Tetrahydropyrimidine-5-Sulfono-Hydrazide] had a melting point of 339 to 341 °C. The molecule further returned an IC50 in data set [1] of 8.16 ± 2.07 µM. For the same molecule, the IC50 in data set [2] is 6.99 ± 1.35 µM. Half-maximal inhibition in data set [3] (IC50) required 11.9 ± 2 µM. In data set [4], 9.44 ± 1.03 µM corresponded to half-maximal inhibition (IC50).

On to `Cc1[nH]c(=S)[nH]c(=O)c1S(=O)(=O)NNc1ccccc1` [Compound 8b, 6-Methyl-4-Oxo-N′-Phenyl-2-Thioxo-1,2,3,4-Tetrahydropyrimidine-5-Sulfonohydrazide], for which the half-inhibitory concentration (IC50) was 16.4 ± 1.55 µM in data set [1], 8.16 ± 2.07 µM in data set [2], 9.89 ± 1.8 µM in data set [3] and 13.1 ± 2.04 µM in data set [4].

`Cc1[nH]c(=S)[nH]c(=O)c1S(=O)(=O)NNc1ccc([N+](=O)[O-])cc1[N+](=O)[O-]` [Compound 8c, N′-(2,4-Dinitrophenyl)-6-Methyl-4-Oxo-2-Thioxo-1,2,3,4-Tetrahydropyrimidine-5-Sulfono Hydrazide] displayed a melting point of 321 to 323 °C. This molecule also yielded an IC50 in data set [1] of 8.57 ± 1.79 µM. Also, the IC50 in data set [2] was 10.1 ± 1.54 µM. The IC50 in data set [3] was found to be 5.54 ± 1.58 µM. In addition, the IC50 in data set [4] worked out at 14.8 ± 1.45 µM.
